The target of test [1] is T1, aqMutL NTD (Aquifex aeolicus, UniProt O67518).
T1 construct: gene mutL; recombinant from E. coli
T1 sequence (O67518 1-319 limits assumed): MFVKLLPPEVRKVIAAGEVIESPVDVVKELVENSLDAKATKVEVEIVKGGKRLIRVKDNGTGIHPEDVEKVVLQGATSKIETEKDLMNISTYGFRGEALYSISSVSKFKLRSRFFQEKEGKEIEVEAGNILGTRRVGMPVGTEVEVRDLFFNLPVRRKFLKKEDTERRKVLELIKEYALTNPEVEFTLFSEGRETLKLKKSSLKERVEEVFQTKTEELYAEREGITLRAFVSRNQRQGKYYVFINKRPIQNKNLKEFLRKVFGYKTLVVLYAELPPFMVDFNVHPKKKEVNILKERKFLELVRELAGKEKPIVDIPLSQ
Kind of test: equilibrium dialysis. In kind it is binding.

For test [2], the target named is T2, aqMutL NTD (Aquifex aeolicus, UniProt O67518, K79A).
T2 construct: gene mutL; recombinant from E. coli
T2 sequence (O67518 1-319 K79A limits assumed): T1 sequence (O67518 1-319 limits assumed) with K79A
Put plainly: equilibrium dialysis. The test is classed as binding. A general note: In equilibrium dialysis only unbound substance equilibrates across the membrane.

We go through one compound from publication doi:10.1101/2021.07.09.451751v1, “Identification of general acid catalyst for the ATPase activity of Lynch syndrome-related MutL homologs” (biorxiv, 2021).

Positions count from the first letter of the chain named. pKd: −log10 of the molar value.

Take `Nc1ncnc2c1ncn2[C@@H]1O[C@H](COP(=O)(O)OP(=O)(O)NP(=O)(O)O)[C@@H](O)[C@H]1O` [AMPPNP]: the negative-log Kd (pKd) (in general, the Kd on a negative log10 scale, so that one unit is a factor of ten) at aqMutL NTD [1] is 3.52; on aqMutL NTD [2], 3.47.
